The text below walks through data of US9988400B2 (Genentech, Inc., priority 2013, dated 2018).

The assay concerns the target T1, HEK cells stably transfected with tetracycline inducible hNR1 and hNR2A (Homo sapiens, UniProt Q05586+Q12879).
T1 construct: expressed in transfected cells; host or cells: HEK cells, stably transfected, tetracycline/doxycycline inducible
The assay is described as follows: Assay 1: Cell-Based Assay, cytosolic calcium response to positive allosteric modulators (with 30 μM glycine and 300 nM L-glutamate, EC30). The settings on record: Table 3; cytosolic calcium response, with 30 μM glycine and 300 nM L-glutamate (EC30); — = no plateau was reached. In outline:
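Cells induced 24 h with 7.5 μg mL^−1 doxycycline plus 500 μM (+)-ketamine, loaded 60 min at 37 °C with calcium dye in Mg-free HBSS (1.8 mM Ca, probenecid, 10 μM (+)-ketamine, pH 7.15). Peak RFU over 5 min after compound addition, scaled to 100 μM L-glutamate (100%) and 0 μM (0%); four-parameter Hill fit for EC50, max % if no plateau.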

T1 sequence (Q12879 23-1464, other chains not shown): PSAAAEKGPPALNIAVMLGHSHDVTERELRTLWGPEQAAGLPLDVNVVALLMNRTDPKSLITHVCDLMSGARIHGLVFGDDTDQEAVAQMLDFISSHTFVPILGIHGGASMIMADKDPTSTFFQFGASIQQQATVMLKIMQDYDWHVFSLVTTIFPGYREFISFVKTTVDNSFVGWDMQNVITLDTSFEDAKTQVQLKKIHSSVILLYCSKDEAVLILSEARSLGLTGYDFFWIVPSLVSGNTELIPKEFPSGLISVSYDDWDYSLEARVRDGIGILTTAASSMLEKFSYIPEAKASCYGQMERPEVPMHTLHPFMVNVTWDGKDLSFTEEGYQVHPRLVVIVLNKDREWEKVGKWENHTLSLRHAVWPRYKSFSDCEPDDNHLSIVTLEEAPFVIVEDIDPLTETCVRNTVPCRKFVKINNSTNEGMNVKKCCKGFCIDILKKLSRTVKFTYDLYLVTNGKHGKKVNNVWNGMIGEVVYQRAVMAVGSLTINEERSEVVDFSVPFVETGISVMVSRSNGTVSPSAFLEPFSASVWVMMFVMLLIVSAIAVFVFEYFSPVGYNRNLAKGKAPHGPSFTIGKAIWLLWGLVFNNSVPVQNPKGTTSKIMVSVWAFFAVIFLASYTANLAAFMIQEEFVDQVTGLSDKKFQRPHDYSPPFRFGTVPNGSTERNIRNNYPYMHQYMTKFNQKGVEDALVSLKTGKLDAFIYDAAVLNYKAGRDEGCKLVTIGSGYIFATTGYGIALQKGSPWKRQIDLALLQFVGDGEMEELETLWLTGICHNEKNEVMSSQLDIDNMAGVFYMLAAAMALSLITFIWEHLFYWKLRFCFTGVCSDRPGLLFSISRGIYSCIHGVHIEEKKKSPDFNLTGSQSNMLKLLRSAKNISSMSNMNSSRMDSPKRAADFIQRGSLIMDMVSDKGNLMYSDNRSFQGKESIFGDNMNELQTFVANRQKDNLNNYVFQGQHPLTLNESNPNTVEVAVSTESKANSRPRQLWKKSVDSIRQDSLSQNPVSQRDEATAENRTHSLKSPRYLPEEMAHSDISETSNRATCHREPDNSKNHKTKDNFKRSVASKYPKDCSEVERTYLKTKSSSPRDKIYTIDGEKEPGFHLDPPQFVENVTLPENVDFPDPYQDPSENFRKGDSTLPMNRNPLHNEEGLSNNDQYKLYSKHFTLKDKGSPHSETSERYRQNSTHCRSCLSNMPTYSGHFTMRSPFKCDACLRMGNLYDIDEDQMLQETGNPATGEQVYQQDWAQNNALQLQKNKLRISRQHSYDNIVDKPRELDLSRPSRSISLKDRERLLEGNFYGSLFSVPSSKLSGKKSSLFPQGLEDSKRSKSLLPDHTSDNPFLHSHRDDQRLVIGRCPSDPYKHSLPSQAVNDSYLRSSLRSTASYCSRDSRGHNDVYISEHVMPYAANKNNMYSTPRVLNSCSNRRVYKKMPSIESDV

For the compound `Cc1sc2nc(Cn3nc(C(F)(F)F)cc3Cl)cc(=O)n2c1C1CCC1` [compound 188, 7-[[5-chloro-3-(trifluoromethyl)pyrazol-1-yl]methyl]-3-cyclobutyl-2-methyl-thiazolo[3,2-a]pyrimidin-5-one], the EC50 (commonly the concentration that produces a half-maximal response) is 3140 nM.
With `Cc1sc2nc(Cn3nc(Cl)cc3C(F)(F)F)cc(=O)n2c1C1CCC1` [compound 189, 7-[[3-chloro-5-(trifluoromethyl)pyrazol-1-yl]methyl]-3-cyclobutyl-2-methyl-thiazolo[3,2-a]pyrimidin-5-one] the figure was 7450 nM; with `Cc1sc2nc(CN(C)c3ccc(Cl)cn3)cc(=O)n2c1C1CC1C#N` (stereo not shown) [compound 190, 2-[7-[[(5-chloro-2-pyridyl)-methyl-amino]methyl]-2-methyl-5-oxo-thiazolo[3,2-a]pyrimidin-3-yl]cyclopropanecarbonitrile], 779 nM; with `Cc1sc2nc(Cn3nc(C(F)(F)F)cc3Cl)cc(=O)n2c1Cl` [compound 192, 3-chloro-7-[[5-chloro-3-(trifluoromethyl)pyrazol-1-yl]methyl]-2-methyl-thiazolo[3,2-a]pyrimidin-5-one], 198 nM.
The same measure for `Cc1sc2nc(Cn3nc(Cl)cc3C(F)(F)F)cc(=O)n2c1Cl` [compound 193, 3-chloro-7-[[3-chloro-5-(trifluoromethyl)pyrazol-1-yl]methyl]-2-methyl-thiazolo[3,2-a]pyrimidin-5-one]: 243 nM; for `COc1cc(F)c(F)cc1Cc1cc(=O)n2c(C3CC3C#N)c(C)sc2n1` (stereo not shown) [compound 194, 2-[7-[(4,5-difluoro-2-methoxy-phenyl)methyl]-2-methyl-5-oxo-thiazolo[3,2-a]pyrimidin-3-yl]cyclopropanecarbonitrile]: 1280 nM; for `CCN(Cc1cc(=O)n2c(C3CC3C#N)c(C)sc2n1)c1ccc(F)cn1` (stereo not shown) [compound 195, 2-[7-[[ethyl-(5-fluoro-2-pyridyl)amino]methyl]-2-methyl-5-oxo-thiazolo[3,2-a]pyrimidin-3-yl]cyclopropanecarbonitrile]: 74.2 nM.
The same measure for `CCN(Cc1cc(=O)n2c(C3CC3CO)c(C)sc2n1)c1ccc(Cl)cn1` (stereo not shown) [compound 196, 7-[[(5-chloro-2-pyridyl)-ethyl-amino]methyl]-3-[2-(hydroxymethyl)cyclopropyl]-2-methyl-thiazolo[3,2-a]pyrimidin-5-one]: 64.2 nM; for `Cc1sc2nc(Cn3nc(C(F)(F)F)cc3Cl)cc(=O)n2c1-c1cncc(C#N)c1` [compound 197, 5-[7-[[5-chloro-3-(trifluoromethyl)pyrazol-1-yl]methyl]-2-methyl-5-oxo-thiazolo[3,2-a]pyrimidin-3-yl]pyridine-3-carbonitrile]: 327 nM.
With `Cc1sc2nc(Cn3nc(C(F)(F)F)cc3Cl)cc(=O)n2c1C(=O)C(F)(F)F` [compound 198, 7-[[5-chloro-3-(trifluoromethyl)pyrazol-1-yl]methyl]-2-methyl-3-(2,2,2-trifluoroacetyl)thiazolo[3,2-a]pyrimidin-5-one], the EC50 was determined as 201 nM.
With `CC1CC1c1c(C(F)(F)F)sc2nc(Cn3nc(C(F)(F)F)cc3Cl)cc(=O)n12` (stereo not shown) [compound 199, 7-[[5-chloro-3-(trifluoromethyl)pyrazol-1-yl]methyl]-3-(2-methylcyclopropyl)-2-(trifluoromethyl)thiazolo[3,2-a]pyrimidin-5-one] the figure was 1390 nM; with `CC1CC1c1c(C(F)(F)F)sc2nc(Cn3nc(Cl)cc3C(F)(F)F)cc(=O)n12` (stereo not shown) [compound 200, 7-[[3-chloro-5-(trifluoromethyl)pyrazol-1-yl]methyl]-3-(2-methylcyclopropyl)-2-(trifluoromethyl)thiazolo[3,2-a]pyrimidin-5-one], 3130 nM.
With `CCc1sc2nc(Cn3nc(C(F)(F)F)cc3Cl)cc(=O)n2c1-c1cccnc1` [compound 202, 7-[[5-chloro-3-(trifluoromethyl)pyrazol-1-yl]methyl]-2-ethyl-3-(3-pyridyl)thiazolo[3,2-a]pyrimidin-5-one] the figure was 23900 nM.
